Test results as given in patent US4603217A, “Ester substituted alkyl-2-(2,6-dichloroanilino)phenyl acetates” (priority 1983, dated 1986).

Legend:
[1] = Rate of hydrolysis in rat plasma; assay type: in vitro ADME; settings: in 1 ml of plasma rat (37° C., incubation for 1 hr)
Method: **in 1 ml of plasma rat (37° C., incubation for 1 hr)

carrageenan edema = assay: inhibition test of carrageenan edema employing a foot-pad edema method; assay type: in vivo, male Wister rats; settings: Rattus norvegicus; male Wister rats, foot-pad edema; read-out: ED50 for inhibition for carrageenan edema
Description: Anti-inflammatory action was investigated according to the method of Winter et al [cf. Pro. Soc. Exp. Biol. Med., 111, 544 (1962)] by the inhibition test of carrageenan edema employing a foot-pad edema method using carrageenan as an irritating agent and male Wister rats weighing 130 to 170 g.

ultraviolet erythema = assay: inhibition action for ultraviolet erythema; assay type: in vivo, male Hartley guinea pigs; set-up: 2 hs after the irradiation, Average ± standard error / 3 hs after the irradiation, Average ± standard error / 5 hs after the irradiation, Average ± standard error: scale not given here; 2 hs after the irradiation, Rate for inhibition / 3 hs after the irradiation, Rate for inhibition / 5 hs after the irradiation, Rate for inhibition: unit not given here; settings: guinea pigs; for 2 hs after the irradiation, Average ± standard error / 2 hs after the irradiation, Rate for inhibition: 2 hs after irradiation; for 3 hs after the irradiation, Average ± standard error / 3 hs after the irradiation, Rate for inhibition: 3 hs after irradiation; for 5 hs after the irradiation, Average ± standard error / 5 hs after the irradiation, Rate for inhibition: 5 hs after irradiation
Method: With respect to Compounds 1 to 3, 15 and 21 which are especially useful as an anti-inflammatory drug, IM and DF, inhibition action for ultraviolet erythema was investigated according to the method of Adames et al [cf. Nature, London, 181, 773 (1958)] using guinea pigs as follows: Male Hartley guinea pigs weighing 250 to 350 g were shaved at their sides the day before and two hrs before the ultraviolet irradiation. To the guinea pigs were administered orally Compounds 1 to 3, 15 and 21, IM and DF in amounts as described in Table 2, respectively. To the control group was administered orally only Tween-80. At 1 hr after the time of administration, the guinea pigs were irradiated at their shaved sides by ultraviolet beam for 40 seconds.
The reaction of the ultraviolet erythema was evaluated at 2 hrs, 3 hrs and 5 hrs after irradiation according to the method of Winder et al [cf. Arch. Int. Pharmacodyn., 116, 261 (1958)]. […] Compounds 1 and 2 show a duration of the pharmacological effect over 5 hrs, contrary to that IM has a duration of 2 hrs.

[2] = potentiating effect on thiopental-induced sleep in mice; assay type: in vivo, male ddY mice; settings: mouse, in vivo, po
Method: (§1) Effect on central nervous system, which is another side effect of IM, was investigated according to the potentiating effect on thiopental-induced sleep in mice as follows: Male ddY mice weighing 20 to 24 g were subjected to fasting for 15 hrs. […] At 30 mins after the administration, thiopental sodium was injected intravenously to each of the mice in an amount of 35 mg/l kg body weight, and then, the sleeping time was observed. When the sleeping time of the mice to which the Test Compound was administered was longer than 2 times that of the control to which only Tween-80 was administered, the given Test Compound was judged to be effective on thiopental-induced sleep potentiating effect.

thiopental-induced sleep = assay: as above; assay type: in vivo, male ddY mice; settings: mouse, in vivo
Method: as §1

in vivo [3] = settings: mouse, po
in vivo [4] = settings: rat, po
Method: Gastrointestinal ulcer formation action, which is a principal side effect of an acid anti-inflammatory drug, was investigated according to the method of Okabe et al [cf. […] The compounds of the present invention, IM, DF and acemethacin were suspended in 5% Tween-80 solution and administered orally 1 ml/100 g body weight to the rats, respectively. At 6 hrs after the administration, the state of glandstomach was observed by means of a dissecting microscope whether the ulcer having a diameter more than 1 mm was generated or not.

COc1ccc2c(c1)c(CC(=O)OCCOC(C)=O)c(C)n2C(=O)c1ccc(Cl)cc1 [Compound 3, 2-(Acetoxy)ethyl[1-(p-chlorobenzoyl)-5-methoxy-2-methyl-3-indolyl]acetate]
metabolised at 1 h [1]: 97.3%
ED50 (carrageenan edema): 6 mg/kg
2 hs after the irradiation, Average ± standard error (ultraviolet erythema; 3 mg/kg orally): 0.5 ± 0.224
2 hs after the irradiation, Rate for inhibition (ultraviolet erythema; 3 mg/kg orally): 81.3
3 hs after the irradiation, Average ± standard error (ultraviolet erythema; 3 mg/kg orally): 2.5 ± 0.224
3 hs after the irradiation, Rate for inhibition (ultraviolet erythema; 3 mg/kg orally): 11.7
5 hs after the irradiation, Average ± standard error (ultraviolet erythema; 3 mg/kg orally): 2.83 ± 0.167
5 hs after the irradiation, Rate for inhibition (ultraviolet erythema; 3 mg/kg orally): 0
2 hs after the irradiation, Average ± standard error (ultraviolet erythema; 10 mg/kg orally): 0.67 ± 0.333
2 hs after the irradiation, Rate for inhibition (ultraviolet erythema; 10 mg/kg orally): 74.9
3 hs after the irradiation, Average ± standard error (ultraviolet erythema; 10 mg/kg orally): 2.3 ± 0.211
3 hs after the irradiation, Rate for inhibition (ultraviolet erythema; 10 mg/kg orally): 18.7
5 hs after the irradiation, Average ± standard error (ultraviolet erythema; 10 mg/kg orally): 2.50 ± 0.224
5 hs after the irradiation, Rate for inhibition (ultraviolet erythema; 10 mg/kg orally): 11.7
ED50 [2]: 600 mg/kg
potentiating effect on thiopental-induced sleep relative to IM (thiopental-induced sleep): 1/5.7
LD50 (in vivo [3]): 65 mg/kg
TD50 at 6 h (in vivo [4]): 15 mg/kg
